Measurements published in patent EP1246919B1, “PROGENITOR CELL PR[…] AND RELATED METHODS AND PRODUCTS” (ImClone Systems Incorporated, priority 1999, dated 2001).
One block for each compound: values may come before it.

Key:
[1] = test system: BALB/c mice; assay: Murine 5-FU chemoprotection model; type: in vivo; settings: 5-FU 150 mg/kg intraperitoneally
Method: A dose regimen was established to determine whether FRIL protects mice from death resulting from hematopoietic toxicity of […]. […] This finding was consistent with the understanding that stem cells reside in the bone marrow in predominantly a quiescent state. Bone marrow cellularity in these mice was restored after 2 weeks by the recruitment of the dormant progenitors and responsive stem cells that escaped toxicity of 5-FU. Administration of a second dose of 5-FU (also at 150 mg/kg) 3-7 days after the initial dose killed those stem cells and progenitors recruited into S-phase in response to the first treatment of 5-FU (Lerner and Harrison, supra).
In this study described below, the pretreatment dose regimen for Dl-FRIL described above (5 mg/kg x 4 days) was selected based on the requirement of treating animals with cytokines for several days prior to starting chemotherapy and because Dl-FRIL-treated mice easily tolerated doses (5 mg/kg) that were 10- to 100-fold greater than that used for cytokines. […]

[2] = test system: BALB/c mice; settings: single dose of 5-FU (150 mg/kg); Lerner and Harrison; cited from earlier work
[3] = target: T1, Dl-FRIL (Lablab purpureus, UniProt Q9ZTA9); settings: Mo et al., Glycobiology 9:173-179, 1999; cited from earlier work
T1 sequence (Q9ZTA9 9-124 limits assumed): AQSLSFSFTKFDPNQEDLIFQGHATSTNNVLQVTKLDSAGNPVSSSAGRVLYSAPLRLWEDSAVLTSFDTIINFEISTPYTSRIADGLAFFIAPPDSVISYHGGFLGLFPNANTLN
T1 sequence (Q9ZTA9 125-272 limits assumed): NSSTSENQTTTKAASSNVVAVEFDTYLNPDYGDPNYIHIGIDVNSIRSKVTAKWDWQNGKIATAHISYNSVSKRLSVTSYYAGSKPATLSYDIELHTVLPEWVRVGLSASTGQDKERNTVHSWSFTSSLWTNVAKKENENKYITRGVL

[4] = target: FLT3 receptor on FLT3-transfected 3T3 cells (murine FLT3 extracellular portion/human Fms chimera or full length human receptor, not told apart at that place); assay: cell-based or functional assay

Compound: O=c1[nH]cc(F)c(=O)[nH]1 [5-FU, 5-fluorouracil]
- deaths after a single dose [1]: No mice died
- reduction of bone marrow cellularity [2]: > 90%

Compound: OC[C@H]1O[C@H](O[C@H]2O[C@H](CO)[C@@H](O)[C@H](O)[C@H]2O)[C@H](O)[C@@H](O)[C@@H]1O [α,α-trehalose]
- greater potency than mannose [3]: 3.6 fold

- Specific Activity (u/mg) in the Flt3 3T3 assay, Superdex 75 fraction (Pv-FRIL purified to near homogeneity from PHA-LCM) [4]: 244000 u/mg
Compound: Pv-FRIL, mannose-binding lectin isolated from red kidney bean (Phaseolus vulgaris) extract, or purified from PHA-LCM
